Laboratory results from patent US12043670B2, “Anti-BCMA antibody-drug conjugates and methods of use” (Eisai R&D Management Co., Ltd., priority 2020, dated 2024).
Where a SMILES comes first, the peptide text is derived from it. [ ]: non-standard residue; d: D form. Dolaproine = CO[C@@H]([C@@H]1CCCN1)[C@@H](C)C(=O)O; Dil = CC[C@H](C)[C@H](NC)[C@@H](CC(=O)O)OC; NMeV = CN[C@H](C(=O)O)C(C)C

Experiments:
Type in all cases: cell-based, human
AMO-1 cells = assay: 6-day CellTiter-Glo cell viability, AMO-1; details: AMO1 cells, 6 days; for LD50 / GI50: CellTiter-Glo; for GI50: read-out: GI50; for RminAve: negative = cell death vs T0
NCI-H929 cells = assay: CellTiter-Glo cell viability, NCI-H929 (normal serum); details: NCIH929 cells, 6 days; for LD50 / GI50: CellTiter-Glo; for GI50: read-out: GI50; for RminAve: negative = cell death vs T0
MM1.R cells = assay: CellTiter-Glo cell viability, MM1.R; details: MM1R cells, 6 days; for LD50 / GI50: CellTiter-Glo; for GI50: read-out: GI50; for RminAve: negative = cell death vs T0
OPM2 cells = assay: CellTiter-Glo cell viability, OPM2 (normal serum); details: OPM2 cells, 6 days; for LD50 / GI50: CellTiter-Glo; for GI50: read-out: GI50; for RminAve: negative = cell death vs T0
EJM cells = assay: 6-day CellTiter-Glo cell viability, EJM; details: EJM cells, 6 days; for LD50 / GI50: CellTiter-Glo; for GI50: read-out: GI50; for RminAve: negative = cell death vs T0
MM1.S cells = assay: CellTiter-Glo cell viability, MM1.S; details: MM1S cells, 6 days; for LD50 / GI50: CellTiter-Glo; for GI50: read-out: GI50; for RminAve: negative = cell death vs T0
RPMI-8226 cells = assay: 6-day CellTiter-Glo cell viability, RPMI-8226; details: RPMI8226 cells, 6 days; for LD50 / GI50: CellTiter-Glo; for GI50: read-out: GI50; for RminAve: negative = cell death vs T0
LP-1 cells = assay: 6-day CellTiter-Glo cell viability, LP-1; details: LP1 cells, 6 days; for LD50 / GI50: CellTiter-Glo; for GI50: read-out: GI50; for RminAve: negative = cell death vs T0
MOLP8 cells = assay: CellTiter-Glo cell viability, MOLP8; details: MOLP8 cells, 6 days; for LD50 / GI50: CellTiter-Glo; for GI50: read-out: GI50; for RminAve: negative = cell death vs T0
KMS-11 cells = assay: 6-day CellTiter-Glo cell viability, KMS-11; details: KMS11 cells, 6 days; for LD50 / GI50: CellTiter-Glo; for GI50: read-out: GI50; for RminAve: negative = cell death vs T0
U266B1 cells = assay: 6-day CellTiter-Glo cell viability, U266B1; details: U266B1 cells, 6 days; for LD50 / GI50: CellTiter-Glo; for GI50: read-out: GI50; for RminAve: negative = cell death vs T0

In the case of `CC[C@H](O)[C@@H](C)[C@H]1O[C@@H]1C[C@@](C)(O)/C=C/C=C(\C)[C@H]1OC(=O)C[C@H](O)CC[C@@](C)(O)[C@@H](OC(=O)N2CCN(C3CCCCCC3)CC2)/C=C/[C@@H]1C` [E7107 (D11)], the “AUC (nM * % relative viability)” value (AMO-1 cells) is reported as 487.7156 nM * % relative viability, the LD50 (AMO-1 cells) is reported as 50.4287 nM and the GI50 (AMO-1 cells) is reported as 14.9 nM. The RminAve (AMO-1 cells) was −96.8372%, the “AUC (nM * % relative viability)” value (NCI-H929 cells) was 321.415 nM * % relative viability and the LD50 (NCI-H929 cells) was 5.836 nM. The GI50 (NCI-H929 cells) was 2.81 nM, the RminAve (NCI-H929 cells) was −99.8426% and the “AUC (nM * % relative viability)” value (MM1.R cells) was 374.4113 nM * % relative viability. The LD50 (MM1.R cells) was 16.5876 nM, the GI50 (MM1.R cells) was 3.33 nM and the RminAve (MM1.R cells) was −99.831%. For the same compound, the “AUC (nM * % relative viability)” value (OPM2 cells) was 289.9829 nM * % relative viability, the LD50 (OPM2 cells) was 4.7541 nM and the GI50 (OPM2 cells) was 1.67 nM. The RminAve (OPM2 cells) was −99.6884%, the “AUC (nM * % relative viability)” value (EJM cells) was 434.2294 nM * % relative viability and the LD50 (EJM cells) was 22.175 nM. For the same compound, the GI50 (EJM cells) was 9.45 nM, the RminAve (EJM cells) was −99.071% and the “AUC (nM * % relative viability)” value (MM1.S cells) was 380.5913 nM * % relative viability. It also gave an LD50 (MM1.S cells) of 18.155 nM, a GI50 (MM1.S cells) of 3.51 nM and a RminAve (MM1.S cells) of −99.7761%. The “AUC (nM * % relative viability)” value (RPMI-8226 cells) was 359.1272 nM * % relative viability, the LD50 (RPMI-8226 cells) was 10.8782 nM and the GI50 (RPMI-8226 cells) was 3.59 nM. For the same compound, the RminAve (RPMI-8226 cells) was −99.7762%, the “AUC (nM * % relative viability)” value (LP-1 cells) was 313.7701 nM * % relative viability and the LD50 (LP-1 cells) was 6.2485 nM. The GI50 (LP-1 cells) was 2.2 nM, the RminAve (LP-1 cells) was −99.6676% and the “AUC (nM * % relative viability)” value (MOLP8 cells) was 361.7797 nM * % relative viability. It also gave an LD50 (MOLP8 cells) of 16.8329 nM, a GI50 (MOLP8 cells) of 2.43 nM and a RminAve (MOLP8 cells) of −99.6765%. The “AUC (nM * % relative viability)” value (KMS-11 cells) was 382.1527 nM * % relative viability, the LD50 (KMS-11 cells) was 13.1801 nM and the GI50 (KMS-11 cells) was 5.03 nM. The RminAve (KMS-11 cells) was −99.2702%, the “AUC (nM * % relative viability)” value (U266B1 cells) was 422.0108 nM * % relative viability and the LD50 (U266B1 cells) was 18.2733 nM. The GI50 (U266B1 cells) was 8.76 nM and the RminAve (U266B1 cells) was −95.1886%.

`N.N.[Cl][Pt][Cl]` [cisplatin] gave a GI50 (AMO-1 cells) of 8590 nM, a RminAve (AMO-1 cells) of −99.8648% and a GI50 (NCI-H929 cells) of 21400 nM. For the same compound, the RminAve (NCI-H929 cells) was −99.945%, the GI50 (MM1.R cells) was 7300 nM and the RminAve (MM1.R cells) was −99.9355%. For the same compound, the GI50 (OPM2 cells) was 17000 nM, the RminAve (OPM2 cells) was −99.784% and the GI50 (EJM cells) was 30100 nM. For the same compound, the RminAve (EJM cells) was −99.8757%, the GI50 (MM1.S cells) was 10200 nM and the RminAve (MM1.S cells) was −99.8687%. The GI50 (RPMI-8226 cells) was 16300 nM, the RminAve (RPMI-8226 cells) was −99.2206% and the GI50 (LP-1 cells) was 50100 nM. It also gave a RminAve (LP-1 cells) of −97.8184%, a GI50 (MOLP8 cells) of 5070 nM and a RminAve (MOLP8 cells) of −99.8824%. For the same compound, the GI50 (KMS-11 cells) was 14400 nM, the RminAve (KMS-11 cells) was −99.8489% and the GI50 (U266B1 cells) was 39900 nM. For the same compound, the RminAve (U266B1 cells) was −99.4122%.

`CC[C@H](C)[C@@H]([C@@H](CC(=O)N1CCC[C@H]1[C@H](OC)[C@@H](C)C(=O)N[C@@H](Cc1ccccc1)C(=O)O)OC)N(C)C(=O)[C@@H](NC(=O)[C@@H](NC)C(C)C)C(C)C` [MMAF] (H-[NMeV]V[Dil][Dolaproine]F-OH) was tested, and the “AUC (nM * % relative viability)” value (AMO-1 cells) was 640.894 nM * % relative viability, the LD50 (AMO-1 cells) was 243.7059 nM and the GI50 (AMO-1 cells) was 101 nM. The RminAve (AMO-1 cells) was −99.5356%, the “AUC (nM * % relative viability)” value (NCI-H929 cells) was 734.8893 nM * % relative viability and the LD50 (NCI-H929 cells) was 676.4428 nM. For the same compound, the GI50 (NCI-H929 cells) was 321 nM, the RminAve (NCI-H929 cells) was −99.782% and the “AUC (nM * % relative viability)” value (MM1.R cells) was 721.5643 nM * % relative viability. It also gave an LD50 (MM1.R cells) of 584.6173 nM, a GI50 (MM1.R cells) of 281 nM and a RminAve (MM1.R cells) of −99.7818%. For the same compound, the “AUC (nM * % relative viability)” value (OPM2 cells) was 740.134 nM * % relative viability, the LD50 (OPM2 cells) was 723.9832 nM and the GI50 (OPM2 cells) was 348 nM. The RminAve (OPM2 cells) was −99.7203%, the “AUC (nM * % relative viability)” value (EJM cells) was 600.0131 nM * % relative viability and the LD50 (EJM cells) was 194.3761 nM. For the same compound, the GI50 (EJM cells) was 51.5 nM, the RminAve (EJM cells) was −98.8551% and the “AUC (nM * % relative viability)” value (MM1.S cells) was 726.0671 nM * % relative viability. It also gave an LD50 (MM1.S cells) of 615.7256 nM, a GI50 (MM1.S cells) of 296 nM and a RminAve (MM1.S cells) of −99.8301%. The “AUC (nM * % relative viability)” value (RPMI-8226 cells) was 714.2788 nM * % relative viability, the LD50 (RPMI-8226 cells) was 557.1533 nM and the GI50 (RPMI-8226 cells) was 224 nM. For the same compound, the RminAve (RPMI-8226 cells) was −95.3537%, the “AUC (nM * % relative viability)” value (LP-1 cells) was 724.5606 nM * % relative viability and the LD50 (LP-1 cells) was 761.0403 nM. For the same compound, the GI50 (LP-1 cells) was 223 nM, the RminAve (LP-1 cells) was −97.9742% and the “AUC (nM * % relative viability)” value (MOLP8 cells) was 788.7538 nM * % relative viability. For the same compound, the LD50 (MOLP8 cells) was 4689.579 nM, the GI50 (MOLP8 cells) was 254 nM and the RminAve (MOLP8 cells) was −58.9492%. For the same compound, the “AUC (nM * % relative viability)” value (KMS-11 cells) was 706.6578 nM * % relative viability, the LD50 (KMS-11 cells) was 490.3828 nM and the GI50 (KMS-11 cells) was 235 nM. For the same compound, the RminAve (KMS-11 cells) was −98.8009%, the “AUC (nM * % relative viability)” value (U266B1 cells) was 661.824 nM * % relative viability and the LD50 (U266B1 cells) was 192.3371 nM. It also gave a GI50 (U266B1 cells) of 67.8 nM and a RminAve (U266B1 cells) of −89.2656%.
